# Measured values published in PMC11272598, “RG7774 (Vicasinabin), an orally bioavailable cannabinoid receptor 2 (CB2R) agonist, decreases retinal vascular permeability, leukocyte adhesion, and ocular inflammation in animal models” (Frontiers in Pharmacology, 2024).
# Assays:
# A1 (h) = A1 (h) (Homo sapiens, UniProt P30542); experiment: CEREP radioligand binding; conditions: radioligand [^3H]-DPCPX
# Excerpt: (§1) Supplement Table1.docx, table 3: Supplementary Table S3. RG7774 binding to non-CB1R/CB2R receptors, ion channels, transporters, and enzymes (CEREP, Celle l’Evescault, France; http://www.cerep.fr). | column: % inhibition of control SB (n = 2)
# NK1 (h) = NK1 (h) (Homo sapiens, UniProt P25103); experiment: CEREP radioligand binding; conditions: radioligand [^125I]-BH-SP
# Excerpt: as §1
# GR (h) = GR (h) (Homo sapiens, UniProt P04150); experiment: CEREP radioligand binding; conditions: radioligand [^3H]-dexamethasone
# Excerpt: as §1
# CB1 (h) = CB1 (h) (Homo sapiens, UniProt P21554); experiment: CEREP radioligand binding; conditions: radioligand [^3H]-CP 55940
# Excerpt: as §1
# sst (non-selective) = experiment: CEREP radioligand binding; conditions: radioligand [^125I]-Tyr^11-somatostatin-14
# Excerpt: as §1
# V1a (h) = V1a (h) (Homo sapiens, UniProt P37288); experiment: CEREP radioligand binding; conditions: radioligand [^3H]-AVP
# Excerpt: as §1
# CCK2 (CCKB) (h) = CCK2 (CCKB) (h) (Homo sapiens, UniProt P32239); experiment: CEREP radioligand binding; conditions: radioligand [^125I]-CCK-8s
# Excerpt: as §1
# [1] = biological target: T1, endogenous CB2R in human Jurkat cells (Homo sapiens, UniProt P34972); experiment: Competition binding, [^3H]-RO6753361, Jurkat cell membranes
# T1 construct: endogenous CB2R in human Jurkat cells; endogenous in cells; host or cells: Jurkat cells
# Protocol: Competition and saturation binding assays were performed using the radiolabeled CB1R/CB2R agonist [^3H]-CP55940 (PerkinElmer, Waltham, MA, United States) in recombinant cell systems, and the newly developed CB2R-selective agonist [^3H]-RO6753361 ([Chicca et al., 2024]) in cells expressing endogenous CB1R/CB2R. Competition assays were conducted by incubating 5, 40, or 40 µg of membrane protein from CHO cells, Jurkat cells or spleen cells, respectively, with 1.5 nM [^3H]-CP55940 or 1.5 nM [^3H]-RO6753361 in the presence or absence of increasing concentrations of ligand (RG7774 or control) for 2 h at 30°C in a final volume of 0.2 mL of assay buffer (50 mmol/L Tris-HCl, 5 mmol/L MgCl2, 2.5 mmol/L EDTA, and 0.5% fatty acid-free BSA [pH 7.4] and 1% DMSO), with gentle shaking. Saturation binding assays were conducted by incubating 1–3 μg, 40 μg, or 30–40 μg of membrane protein from CHO cells, Jurkat cells, or spleen tissue, respectively, with 12 concentrations in the range of 80–0.039 nM [^3H]-CP55940 or [^3H]-RO6753361 for 2 h at 30°C in a final volume of 0.2 mL/well of assay buffer without DMSO. […] IC50 values and Hill slopes were determined with a 4-parameter logistic model using ActivityBase (ID Business Solution, Guilford, United Kingdom) and pKi values were determined using the Cheng-Prusoff equation ([Cheng and Prusoff, 1973]).
# CYP2C8 = biological target: T2, CYP2C8 (Homo sapiens, UniProt P10632); experiment: CYP inhibition assay; format: in vitro ADME; conditions: 2C8, human liver microsomes
# T2 construct: pooled human liver microsomes, CYP probe substrate around the reported Km; from tissue; host or cells: pooled human liver microsomes
# Protocol: (§2) CYP assays were conducted as previously described to determine the risk of drug-drug interactions between test compounds and drugs known to be metabolized via different CYPs. […] Conditions were optimized to achieve the linear metabolic rate for the probe substrate reactions. Samples were analyzed by LC-MS/MS. Assays generate two endpoints: IC50 (μM) and percent inhibition at the highest acceptable test concentration (typically 50 μM; lower if highest concentration data are rejected due to insolubility).
# CYP2C9 = biological target: T3, CYP2C9 (Homo sapiens, UniProt P11712); experiment: CYP inhibition assay; format: in vitro ADME; conditions: 2C9, human liver microsomes
# T3 construct: pooled human liver microsomes, CYP probe substrate around the reported Km; from tissue; host or cells: pooled human liver microsomes
# Protocol: as §2
# CYP3A4 = biological target: T4, CYP3A4 (Homo sapiens, UniProt P08684); experiment: CYP inhibition assay; format: in vitro ADME; conditions: 3A4, human liver microsomes
# T4 construct: pooled human liver microsomes, CYP probe substrate around the reported Km; from tissue; host or cells: pooled human liver microsomes
# Protocol: as §2
# CYP2C19 = biological target: T5, CYP2C19 (Homo sapiens, UniProt P33261); experiment: CYP inhibition assay; format: in vitro ADME; conditions: 2C19, human liver microsomes
# T5 construct: pooled human liver microsomes, CYP probe substrate around the reported Km; from tissue; host or cells: pooled human liver microsomes
# Protocol: as §2
# CYP2D6 = biological target: T6, CYP2D6 (Homo sapiens, UniProt P10635); experiment: CYP inhibition assay; format: in vitro ADME; conditions: 2D6, human liver microsomes
# T6 construct: pooled human liver microsomes, CYP probe substrate around the reported Km; from tissue; host or cells: pooled human liver microsomes
# Protocol: as §2
# CYP1A2 = biological target: T7, CYP1A2 (Homo sapiens, UniProt P05177); experiment: CYP inhibition assay; format: in vitro ADME; conditions: 1A2, human liver microsomes
# T7 construct: pooled human liver microsomes, CYP probe substrate around the reported Km; from tissue; host or cells: pooled human liver microsomes
# Protocol: as §2
# Human DAGL = Human DAGL assay (HaCaT cells); format: biochemical; conditions: RG7774 10 µM
# Protocol: Mouse brain or human HaCaT cells (CLS Cell Lines Service, GmbH, Eppelheim, Germany) were homogenized in 50 mM Tris-HCl (pH 7.4) using a glass potter, and homogenates were centrifuged at 4°C sequentially at 800 g (10 min) and 10,000 g (30 min). The final pellet (80–200 µg) was resuspended in 50 mM Tris-HCl (pH 7.4) containing 10 mM CaCl2 and incubated at 37°C for 30 min with sn-1[^14C]-stearoyl-2-arachidonoyl-glycerol (100 µM) (ARC, MO, USA). Reactions were stopped by adding chloroform/methanol (2:1, v/v), and the organic phase was dried and fractionated by thin-layer chromatography on silica gel, as previously reported. Levels of 1[^14C]-stearoyl acid radioactivity were determined by cutting the appropriate band from the gel and analyzing using a β-scintillation counter. Mouse cells were preincubated for 15 min with RG7774 (10 µM) and added to the incubation medium. Human cells were preincubated for 15 min with 8 different concentrations of RG7774 (0.1-500 µM) and added to the incubation medium. Control experiments were carried out in the presence of the selective DAGL inhibitor, D053 (10 µM).
# T2 sequence (P10632 whole entry): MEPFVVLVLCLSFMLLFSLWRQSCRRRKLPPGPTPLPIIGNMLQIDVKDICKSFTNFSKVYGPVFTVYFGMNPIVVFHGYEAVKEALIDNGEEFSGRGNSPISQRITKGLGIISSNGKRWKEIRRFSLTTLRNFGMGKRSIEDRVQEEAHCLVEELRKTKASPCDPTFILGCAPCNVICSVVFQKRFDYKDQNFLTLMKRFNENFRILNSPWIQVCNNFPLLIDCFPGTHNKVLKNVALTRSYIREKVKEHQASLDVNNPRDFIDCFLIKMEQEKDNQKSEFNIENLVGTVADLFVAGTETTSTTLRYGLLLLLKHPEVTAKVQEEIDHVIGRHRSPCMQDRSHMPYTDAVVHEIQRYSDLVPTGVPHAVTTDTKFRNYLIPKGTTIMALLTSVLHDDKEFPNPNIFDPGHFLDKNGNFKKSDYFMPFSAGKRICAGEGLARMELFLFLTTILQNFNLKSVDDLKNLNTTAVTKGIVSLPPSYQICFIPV
# T1 sequence (P34972 whole entry): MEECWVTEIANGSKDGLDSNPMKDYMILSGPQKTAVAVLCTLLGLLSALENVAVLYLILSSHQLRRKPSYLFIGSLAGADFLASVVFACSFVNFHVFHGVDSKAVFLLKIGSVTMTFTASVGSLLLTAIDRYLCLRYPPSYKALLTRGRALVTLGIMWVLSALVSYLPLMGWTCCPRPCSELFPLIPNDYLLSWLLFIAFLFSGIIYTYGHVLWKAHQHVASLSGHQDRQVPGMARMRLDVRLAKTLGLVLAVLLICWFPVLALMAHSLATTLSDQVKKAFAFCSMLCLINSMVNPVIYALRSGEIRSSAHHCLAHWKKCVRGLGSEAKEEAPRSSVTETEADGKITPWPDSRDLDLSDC
# NK1 (h), sequence (P25103 whole entry): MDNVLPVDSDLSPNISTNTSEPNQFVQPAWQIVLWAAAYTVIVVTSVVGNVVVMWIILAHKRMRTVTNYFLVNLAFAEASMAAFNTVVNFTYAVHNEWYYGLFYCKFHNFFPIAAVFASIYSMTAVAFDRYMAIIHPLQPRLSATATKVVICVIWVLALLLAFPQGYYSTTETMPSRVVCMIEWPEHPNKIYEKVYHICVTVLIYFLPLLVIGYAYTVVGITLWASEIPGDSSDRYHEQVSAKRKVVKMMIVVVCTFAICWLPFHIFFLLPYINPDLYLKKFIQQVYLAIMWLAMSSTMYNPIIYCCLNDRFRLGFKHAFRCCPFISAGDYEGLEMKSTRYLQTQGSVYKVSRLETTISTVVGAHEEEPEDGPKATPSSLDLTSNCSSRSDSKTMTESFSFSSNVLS
# T6 sequence (P10635 whole entry): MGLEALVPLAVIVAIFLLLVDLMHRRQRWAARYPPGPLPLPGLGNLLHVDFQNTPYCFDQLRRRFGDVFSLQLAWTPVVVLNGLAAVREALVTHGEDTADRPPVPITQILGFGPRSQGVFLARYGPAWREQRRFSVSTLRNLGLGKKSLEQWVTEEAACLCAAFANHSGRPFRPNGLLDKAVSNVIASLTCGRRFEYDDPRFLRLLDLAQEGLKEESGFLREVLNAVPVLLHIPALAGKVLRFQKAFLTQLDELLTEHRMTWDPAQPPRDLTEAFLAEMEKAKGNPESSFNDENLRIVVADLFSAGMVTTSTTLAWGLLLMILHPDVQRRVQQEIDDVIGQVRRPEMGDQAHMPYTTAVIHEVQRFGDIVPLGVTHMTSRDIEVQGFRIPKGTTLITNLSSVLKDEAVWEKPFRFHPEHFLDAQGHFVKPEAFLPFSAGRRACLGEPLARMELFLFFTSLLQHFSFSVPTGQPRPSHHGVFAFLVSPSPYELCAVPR
# GR (h), sequence (P04150 whole entry): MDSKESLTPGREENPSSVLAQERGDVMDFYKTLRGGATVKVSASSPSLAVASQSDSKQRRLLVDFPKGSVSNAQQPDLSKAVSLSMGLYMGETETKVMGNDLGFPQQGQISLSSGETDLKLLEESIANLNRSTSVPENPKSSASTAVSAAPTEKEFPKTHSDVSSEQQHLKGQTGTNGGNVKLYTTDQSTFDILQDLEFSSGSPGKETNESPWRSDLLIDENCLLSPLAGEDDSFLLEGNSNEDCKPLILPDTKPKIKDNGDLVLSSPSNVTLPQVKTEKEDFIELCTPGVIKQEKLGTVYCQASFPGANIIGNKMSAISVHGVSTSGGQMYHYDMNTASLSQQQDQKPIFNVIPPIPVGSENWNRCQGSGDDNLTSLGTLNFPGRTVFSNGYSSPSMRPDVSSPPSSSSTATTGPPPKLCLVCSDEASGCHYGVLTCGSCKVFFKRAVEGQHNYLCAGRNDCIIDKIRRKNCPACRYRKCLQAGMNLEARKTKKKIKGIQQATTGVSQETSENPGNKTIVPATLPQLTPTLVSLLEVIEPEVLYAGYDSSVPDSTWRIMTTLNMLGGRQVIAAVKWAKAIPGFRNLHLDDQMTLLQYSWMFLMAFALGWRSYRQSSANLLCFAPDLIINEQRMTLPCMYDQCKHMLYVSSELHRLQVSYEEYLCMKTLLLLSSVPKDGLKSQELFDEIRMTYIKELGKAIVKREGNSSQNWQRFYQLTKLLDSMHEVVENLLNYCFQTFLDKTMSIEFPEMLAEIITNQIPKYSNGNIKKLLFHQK
# CCK2 (CCKB) (h), sequence (P32239 whole entry): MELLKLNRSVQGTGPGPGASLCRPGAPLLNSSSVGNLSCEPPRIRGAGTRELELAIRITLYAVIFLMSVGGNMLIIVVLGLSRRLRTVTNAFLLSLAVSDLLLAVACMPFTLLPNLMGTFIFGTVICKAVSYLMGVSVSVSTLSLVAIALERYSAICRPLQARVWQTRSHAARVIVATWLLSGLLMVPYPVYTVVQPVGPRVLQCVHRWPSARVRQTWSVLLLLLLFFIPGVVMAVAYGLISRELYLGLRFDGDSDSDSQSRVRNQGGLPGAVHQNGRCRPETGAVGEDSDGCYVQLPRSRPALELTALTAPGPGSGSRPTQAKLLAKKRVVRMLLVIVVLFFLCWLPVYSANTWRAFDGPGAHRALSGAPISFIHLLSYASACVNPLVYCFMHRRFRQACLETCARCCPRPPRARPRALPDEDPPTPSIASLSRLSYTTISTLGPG
# T5 sequence (P33261 whole entry): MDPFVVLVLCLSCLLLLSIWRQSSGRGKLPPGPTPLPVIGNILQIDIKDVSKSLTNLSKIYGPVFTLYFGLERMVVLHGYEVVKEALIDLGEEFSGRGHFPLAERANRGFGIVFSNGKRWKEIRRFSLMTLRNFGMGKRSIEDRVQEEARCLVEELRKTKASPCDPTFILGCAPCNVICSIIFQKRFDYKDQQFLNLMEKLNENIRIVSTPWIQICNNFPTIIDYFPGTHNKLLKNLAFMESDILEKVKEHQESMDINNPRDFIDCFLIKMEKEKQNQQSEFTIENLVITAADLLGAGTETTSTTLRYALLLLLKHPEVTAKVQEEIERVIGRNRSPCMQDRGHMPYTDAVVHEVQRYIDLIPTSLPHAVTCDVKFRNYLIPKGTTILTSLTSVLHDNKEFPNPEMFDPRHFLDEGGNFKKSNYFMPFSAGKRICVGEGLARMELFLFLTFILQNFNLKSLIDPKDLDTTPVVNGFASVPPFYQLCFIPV
# A1 (h), sequence (P30542 whole entry): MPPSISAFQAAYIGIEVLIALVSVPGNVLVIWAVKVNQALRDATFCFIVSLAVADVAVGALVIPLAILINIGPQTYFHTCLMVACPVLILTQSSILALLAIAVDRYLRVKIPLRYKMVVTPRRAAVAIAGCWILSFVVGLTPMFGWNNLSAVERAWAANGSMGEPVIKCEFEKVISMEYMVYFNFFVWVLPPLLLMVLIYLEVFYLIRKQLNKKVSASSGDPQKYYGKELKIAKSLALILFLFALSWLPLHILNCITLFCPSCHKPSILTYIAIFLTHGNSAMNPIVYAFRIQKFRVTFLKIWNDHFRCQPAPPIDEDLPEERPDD
# T3 sequence (P11712 whole entry): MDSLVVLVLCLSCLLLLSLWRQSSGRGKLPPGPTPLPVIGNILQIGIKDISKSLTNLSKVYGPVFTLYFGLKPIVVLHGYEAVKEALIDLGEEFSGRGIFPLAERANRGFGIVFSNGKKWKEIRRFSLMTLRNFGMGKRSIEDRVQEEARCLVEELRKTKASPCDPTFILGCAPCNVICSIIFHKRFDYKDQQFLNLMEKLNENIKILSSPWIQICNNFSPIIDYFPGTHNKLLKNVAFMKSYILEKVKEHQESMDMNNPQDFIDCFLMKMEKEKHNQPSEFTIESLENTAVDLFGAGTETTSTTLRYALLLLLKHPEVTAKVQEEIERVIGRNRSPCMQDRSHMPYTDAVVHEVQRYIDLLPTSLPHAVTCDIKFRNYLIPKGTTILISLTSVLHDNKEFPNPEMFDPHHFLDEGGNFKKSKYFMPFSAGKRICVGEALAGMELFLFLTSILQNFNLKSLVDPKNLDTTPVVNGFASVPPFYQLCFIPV
# T4 sequence (P08684 whole entry): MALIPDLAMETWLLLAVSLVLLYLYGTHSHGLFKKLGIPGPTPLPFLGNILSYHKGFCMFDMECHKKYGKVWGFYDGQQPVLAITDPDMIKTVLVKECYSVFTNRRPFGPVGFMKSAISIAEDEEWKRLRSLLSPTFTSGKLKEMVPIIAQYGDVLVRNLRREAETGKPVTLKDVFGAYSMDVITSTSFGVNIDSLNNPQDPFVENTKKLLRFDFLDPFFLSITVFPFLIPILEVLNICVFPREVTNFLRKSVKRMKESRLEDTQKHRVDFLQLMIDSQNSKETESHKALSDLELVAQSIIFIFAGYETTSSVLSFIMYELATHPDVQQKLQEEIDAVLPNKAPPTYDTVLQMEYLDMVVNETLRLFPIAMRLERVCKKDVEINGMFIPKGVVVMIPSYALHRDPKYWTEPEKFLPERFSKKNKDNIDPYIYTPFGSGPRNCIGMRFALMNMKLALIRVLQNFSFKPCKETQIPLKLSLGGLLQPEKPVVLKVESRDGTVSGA
compound,measurement,setting,value
"Cn1nnnc1Cn1nnc2c(N3CC[C@H](O)C3)nc(C(C)(C)C)nc21 [RG7774, (S)-1-(5-tert-butyl-3-[(1-methyl-1H-tetrazol-5-yl)methyl]-3H-[1,2,3]triazolo[4,5-d]pyrimidin-7-yl)pyrrolidin-3-ol]",% inhibition of control SB (n = 2),A1 (h),3.6%
same,% inhibition of control SB (n = 2),NK1 (h),–3.7%
same,% inhibition of control SB (n = 2),GR (h),3.0%
same,% inhibition of control SB (n = 2),CB1 (h),–0.8%
same,% inhibition of control SB (n = 2),sst (non-selective),–22.2%
same,% inhibition of control SB (n = 2),V1a (h),7.5%
same,% inhibition of control SB (n = 2),CCK2 (CCKB) (h),–7.6%
same,Ki,[1],0.0319 ± 0.0134 µM
same,IC50,CYP2C8,> 50 µM
same,IC50,CYP2C9,29 µM
same,IC50,CYP3A4,> 50 µM
same,IC50,CYP2C19,> 50 µM
same,IC50,CYP2D6,> 50 µM
same,IC50,CYP1A2,> 50 µM
same,"Mean ± SEM % inhibition of control, Human DAGL",Human DAGL,4.2 ± 52.2%
